Values of other authors in patent US20050281896A1, “Nutritional composition for increasing creatine uptake in skeletal muscle” (priority 2004, published 2005).

Assays:
[1] = in vivo
[2] = target: angiotensin converting enzyme (ACE) (Homo sapiens, UniProt P12821)
Sequence of angiotensin converting enzyme (ACE) (P12821 30-1306, species assumed): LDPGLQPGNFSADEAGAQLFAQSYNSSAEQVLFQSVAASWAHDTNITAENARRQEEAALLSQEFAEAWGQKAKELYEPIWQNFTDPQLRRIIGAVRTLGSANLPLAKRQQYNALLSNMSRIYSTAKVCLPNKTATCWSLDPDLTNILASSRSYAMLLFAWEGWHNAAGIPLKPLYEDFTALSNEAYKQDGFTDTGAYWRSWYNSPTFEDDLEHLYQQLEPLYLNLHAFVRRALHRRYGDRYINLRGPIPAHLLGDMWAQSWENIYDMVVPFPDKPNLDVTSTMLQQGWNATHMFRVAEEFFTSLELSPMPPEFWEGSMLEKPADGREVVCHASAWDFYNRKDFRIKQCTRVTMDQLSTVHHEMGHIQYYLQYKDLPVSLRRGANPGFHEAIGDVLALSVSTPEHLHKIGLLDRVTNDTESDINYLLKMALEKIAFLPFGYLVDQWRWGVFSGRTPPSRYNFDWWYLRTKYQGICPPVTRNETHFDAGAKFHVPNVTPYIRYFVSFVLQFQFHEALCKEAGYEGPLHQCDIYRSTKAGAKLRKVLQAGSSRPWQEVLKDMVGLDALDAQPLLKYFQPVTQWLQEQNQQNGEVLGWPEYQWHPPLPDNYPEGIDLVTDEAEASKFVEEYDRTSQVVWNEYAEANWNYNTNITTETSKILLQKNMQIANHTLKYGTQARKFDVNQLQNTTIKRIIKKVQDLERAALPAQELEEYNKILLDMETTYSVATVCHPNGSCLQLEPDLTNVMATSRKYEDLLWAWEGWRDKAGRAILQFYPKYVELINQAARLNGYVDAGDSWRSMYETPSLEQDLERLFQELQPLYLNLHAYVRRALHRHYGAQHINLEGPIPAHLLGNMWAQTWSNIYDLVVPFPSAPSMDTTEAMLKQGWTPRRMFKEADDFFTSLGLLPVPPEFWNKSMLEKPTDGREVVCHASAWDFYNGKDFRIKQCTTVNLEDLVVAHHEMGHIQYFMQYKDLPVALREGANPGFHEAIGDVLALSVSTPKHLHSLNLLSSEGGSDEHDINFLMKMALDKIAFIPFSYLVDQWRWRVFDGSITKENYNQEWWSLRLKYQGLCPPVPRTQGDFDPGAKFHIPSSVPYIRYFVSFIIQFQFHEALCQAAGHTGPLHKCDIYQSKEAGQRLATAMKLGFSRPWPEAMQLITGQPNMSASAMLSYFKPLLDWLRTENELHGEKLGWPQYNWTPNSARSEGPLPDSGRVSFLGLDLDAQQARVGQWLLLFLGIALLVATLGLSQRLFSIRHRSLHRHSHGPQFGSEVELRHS

Row | Structure (SMILES) | increase of the metabolic clearance rate of glucose (diabetics) [%] | body's utilization of blood sugar (type II diabetics) | effect on blood pressure [1] | effect on angiotensin converting enzyme (ACE) [2]
1 | O=C(O)CCCC[C@@H]1CCSS1 (stereo in doubt) [alpha lipoic acid, 1,2-dithiolane-3-pentanoic acid] | 50 | significantly increase |  | 
2 | O=C(/C=C/c1ccc(O)c(O)c1)c1ccc(O)cc1O [butein, 3,4,2′,4′-tetrahydroxychalcone] |  |  | hypotensive effects | inhibition
